Test results: BindingDB's records for doi:10.1021/jm7013887 (Abbott Laboratories, 2008)

Assays:
[1] = biological target: T1, Diacylglycerol O-acyltransferase 1 (Mus musculus, UniProt Q9Z2A7); experiment: In Vitro FlashPlate Assay; settings: pH 7.5; 22 °C
T1 sequence (Q9Z2A7 whole entry): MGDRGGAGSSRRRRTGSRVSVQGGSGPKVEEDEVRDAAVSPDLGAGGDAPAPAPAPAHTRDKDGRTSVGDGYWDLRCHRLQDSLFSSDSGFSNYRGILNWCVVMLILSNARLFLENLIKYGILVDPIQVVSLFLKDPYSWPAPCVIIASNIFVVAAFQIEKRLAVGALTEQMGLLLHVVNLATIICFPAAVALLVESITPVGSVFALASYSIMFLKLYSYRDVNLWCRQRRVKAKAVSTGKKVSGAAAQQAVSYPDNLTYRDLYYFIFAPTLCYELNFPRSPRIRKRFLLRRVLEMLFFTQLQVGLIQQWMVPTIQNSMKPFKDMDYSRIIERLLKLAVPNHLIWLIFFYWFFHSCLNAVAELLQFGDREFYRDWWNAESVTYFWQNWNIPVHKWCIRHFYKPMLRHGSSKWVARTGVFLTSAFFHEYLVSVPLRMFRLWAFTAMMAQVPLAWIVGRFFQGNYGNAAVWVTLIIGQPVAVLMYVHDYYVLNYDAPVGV
Description: (§1) DGAT-1 activity was characterized by catalyzing the transfer of the radiolabeled decanoyl group onto the syn-3 position of didecanoyl glycerol. The resultant radiolabeled tridecanoyl glycerol (tricaprin) preferentially binds to the hydrophobic coating on the phospholipid FlashPlate, and radioactivity was measured in the TopCount Plate Reader. Various concentrations (0.0001 uM to 10 uM) of test compounds were added to individual wells prior to the addition of membranes.

[2] = biological target: T2, Diacylglycerol O-acyltransferase 1 (Homo sapiens, UniProt O75907); experiment: In Vitro FlashPlate Assay; settings: pH 7.5; 22 °C
T2 sequence (O75907 whole entry): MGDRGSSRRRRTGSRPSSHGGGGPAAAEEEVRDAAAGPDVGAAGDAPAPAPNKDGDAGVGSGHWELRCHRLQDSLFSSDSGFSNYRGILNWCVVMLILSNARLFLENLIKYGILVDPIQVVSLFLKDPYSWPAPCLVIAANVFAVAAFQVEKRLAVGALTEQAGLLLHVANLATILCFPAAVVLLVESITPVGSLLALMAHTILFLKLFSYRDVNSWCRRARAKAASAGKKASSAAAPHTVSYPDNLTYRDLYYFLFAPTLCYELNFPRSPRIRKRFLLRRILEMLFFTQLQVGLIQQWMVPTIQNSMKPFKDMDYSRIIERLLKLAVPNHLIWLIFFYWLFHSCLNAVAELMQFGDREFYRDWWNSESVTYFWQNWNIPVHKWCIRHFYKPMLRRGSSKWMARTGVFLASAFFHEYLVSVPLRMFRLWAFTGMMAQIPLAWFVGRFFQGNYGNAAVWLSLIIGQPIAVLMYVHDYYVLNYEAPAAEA
Description: as §1

IC50 [1]: 28 nM
IC50 [2]: 9 nM
Structure (SMILES): COc1ccc(NC(=O)Nc2ccc(-c3ccc(C(=O)[C@@H]4CCC[C@H]4C(=O)O)cc3)cc2)cc1 [(1R,2R)-2-{[4-(4-{[(4-methoxyphenyl)carbamoyl]amino}phenyl)phenyl]carbonyl}cyclopentane-1-carboxylic acid]
